The source of these data is PMC3597726, “N-Substituted Benzyl Matrinic Acid Derivatives Inhibit Hepatitis C Virus (HCV) Replication through Down-Regulating Host Heat-Stress Cognate 70 (Hsc70) Expression” (PLoS ONE, 2013).

pEC50: −log10 of the molar value. Entries after “also recorded” stand apart in the source; their conditions may differ.

In data set [1] the test system is HCV (recombination virus strain J6/JFH/JC). The experiment in a line: Anti-HCV activity in Huh7.5 cells, intracellular HCV RNA by real-time RT-PCR. It is filed as cell-based, hepatitis C virus (HCV). The conditions noted are these: for pEC50: anti-HCV activity, 72 h, HCV RNA by RT-PCR. How it is done:
(§1) All of the synthesized compounds were examined for their anti-HCV activity and cytotoxicity in Huh 7.5 cells using specific real-time RT-PCR assay, as described in our previous publication. Anti-HCV activity was evaluated by measuring both EC50 (for anti-HCV activity) and CC50 (for cytotoxicity) values. As a key indication, the selectivity index (SI) was calculated as a ratio of CC50 to EC50. Anti-HCV activity of the study compound was estimated by combining its EC50 value with SI.
Huh7.5 cells were seeded into 96-well or 6-well plates (Costar) at a density of 3×10^4 cells/cm^2. After 24 h incubation, the cells were infected with HCV viral stock (recombination virus strain J6/JFH/JC, 45 IU/cell) and simultaneously treated with the test compounds at various concentrations.
(§2) Concentrations or solvent as the control. The culture medium was removed after 72 h incubation, the intracellular total RNA (in 96-well plates) was extracted with RNeasy Mini Kit (Qiagen), and total intracellular proteins (in 6-well plates) were extracted with Cyto-Buster Protein Extraction Reagent added with 1 mM protease inhibitor cocktail. The intracellular HCV RNA was quantified with a real time one-step reverse-transcription polymerase chain reaction (RT-PCR). HCV core protein was detected with western blot (see below).
Background: Quantitative PCR measures a nucleic acid by following its amplification.

For the next data set, the system named is Huh7.5 cells. The data set can be described thus: Cytotoxicity assay (MTT) in Huh7.5 cells. The settings on record: cytotoxicity, Huh7.5 cells, MTT, 72 h; read-out: CC50. It is filed as cell-based, Human. How it is done:
as §1
Huh7.5 cells were seeded into 96-well plates (Costar) at a density of 3×10^4 cells/cm^2. After 24 h incubation. Fresh culture medium containing test compounds at various concentrations were added. 72 h later, Cytotoxicity was evaluated with 3-(4,5-Dimethylthiazol-2-yl)-2,5-diphenyltetrazolium bromide (MTT).

In a further data set the target is T1, HCV NS3/4A protease (Hepatitis C virus genotype 2a, UniProt Q99IB8).
T1 construct: HCV NS3/4A protease activity (Michaelis constant Km = 0.60 µM) in the lysates; endogenous in cells; host or cells: lysates
T1 sequence (Q99IB8 1662-1715): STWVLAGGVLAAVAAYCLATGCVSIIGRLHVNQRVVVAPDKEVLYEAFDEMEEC
T1 sequence (Q99IB8 1031-1661): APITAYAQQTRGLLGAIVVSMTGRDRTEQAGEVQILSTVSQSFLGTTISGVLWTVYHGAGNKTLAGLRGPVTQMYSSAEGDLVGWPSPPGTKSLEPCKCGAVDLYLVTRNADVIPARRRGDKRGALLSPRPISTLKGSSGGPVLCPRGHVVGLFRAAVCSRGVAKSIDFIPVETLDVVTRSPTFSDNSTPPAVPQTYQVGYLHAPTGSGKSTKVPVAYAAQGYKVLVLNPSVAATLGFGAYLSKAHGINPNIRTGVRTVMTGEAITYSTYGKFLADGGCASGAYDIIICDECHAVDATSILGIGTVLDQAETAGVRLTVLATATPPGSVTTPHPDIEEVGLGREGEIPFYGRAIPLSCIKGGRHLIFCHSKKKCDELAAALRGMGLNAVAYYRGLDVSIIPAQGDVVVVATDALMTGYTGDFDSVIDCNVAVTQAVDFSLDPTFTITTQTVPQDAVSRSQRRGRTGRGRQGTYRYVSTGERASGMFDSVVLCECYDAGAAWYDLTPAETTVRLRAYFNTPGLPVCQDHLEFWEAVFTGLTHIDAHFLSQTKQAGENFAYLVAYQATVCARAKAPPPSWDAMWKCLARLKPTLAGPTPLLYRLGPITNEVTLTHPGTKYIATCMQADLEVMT
It is filed as biochemical. The settings on record: 250 µg/mL, in the lysates.

The nature of data set [2]: Single dose toxicity test in mice. The settings on record: for effect on body weight: i.g single dose 250, 500 or 1000 mg/kg (data not shown); for mortality: i.g single dose 250, 500 or 1000 mg/kg, 7 days; for LD50: oral (i.g) single dose, monitored 7 days. The procedure: Single dose toxicity tests for 7c and 7m were carried out in mice as well. After 7c or 7m was given by intragastric administration (i.g) at a dose of 250, 500 or 1000 mg/kg, the mice were closely monitored for 7 days.
Animals were purchased from the Institute of Laboratory Animal Sciences, Chinese Academy of Medical Sciences and Peking Union Medical College, Beijing, China. All experimental procedures were approved by Biomedical Ethics Committee of Chinese Academy of Medical Sciences of animal use and protection. The mice were cared according to the institutional guidelines of the Chinese Academy of Medical Sciences. Male and female KunMing mice with weight of 22.0±1.0 g were fed with regular chow and housed in an air-conditioned room. The mice were randomly divided into five groups with 10 mice each (five male plus five female). The each group of mice were administrated orally 7c and 7m at 0 (saline as control), 500 or 1000 mg/kg, respectively. The test compounds were given in a single-dosing. Body weight as well as survival was closely monitored.

A further data set has as its system HCV. The settings on record: Huh7.5 cells. From the text:
To further confirm the mode of action for the activity against HCV, down-regulation of Hsc70 expression by 7c was also examined by Western Blot.

The nature of data set [3]: Oral pharmacokinetics in male ICR mice. The settings on record: for MRT / t1/2 / AUC 0−t / Cmax / Tmax: oral (ig) 25 mg/kg; for Cmax / Tmax: plasma.
Experimental: The study compounds were given to male ICR mice via oral (ig, 25 mg/kg) route.
Male male ICR mice (20–40 g) were obtained from SLAC Laboratory Animal Inc. (Shanghai, China). Three male ICR mice were used in each study. Each of them was dosed with a tested compound at 25 mg/kg via oral administration. Nine blood samples were collected at 0, 0.25, 0.50, 1.0, 2.0, 4.0, 6.0 and 24 h and were immediately centrifuged to separate the plasma fractions. The separated plasma samples were stored at –20°C for analysis. Concentration-versus-time profiles were obtained for each analyte, and standard non-compartmental analysis was performed on the data using WinNonlin software, version 5.3, to recover the AUC and other non-compartmental parameters.
The test system of a further data set is HCV NS3. The data set can be described thus: Intracellular HCV NS3 protein level in infected Huh7.5 cells (Western blot). It is filed as cell-based, hepatitis C virus (HCV). (In western blotting, separated proteins are transferred to a membrane and probed.)
Another data set relates to Hsc70. The experiment in a line: Hsc70 protein expression in Huh7.5 cells (Western blot). It is filed as cell-based, Human. The settings on record: Huh7.5 cells, 31.25, 62.5, 125 and 250 µg/mL, 72 h. How it is done:
as §2
The extracted total protein were denatured by adding 5× loading buffer (250 mM Tris-HCl, pH 6.8, 5% dithiothreitol, 10% SDS, 0.5% bromophenol blue, 50% glycerol), followed by boiling for 10 min. Proteins were analyzed with SDS-PAGE, then transfered onto nitrocellulose membranes by electroblotter. The membranes were blocked in 5% nonfat dry milk in TBS-T solusion (20 mM Tris, 150 mM NaCl, 0.1% Tween-20) for 1 h, and washed three times for 10 min each in the TBS-T. Membrane samples were probed with monoclonal antibody specific for protein of HCV core or Hsc70. As a control, monoclonal antibody to actin was used. […] Protein was detected using Immbilon Western Chemiluminescent HRP Substrate (Millipore Inc.) with Alpha Innotech Focus and Image Acquisition.

What is called pEC50 is the negative decadic logarithm of the EC50, by convention in mol/L. A word on the CC50: it is the concentration giving 50% cytotoxicity. A word on the LD50: it is the dose expected to kill half of the subjects tested. Read a high LD50 as a less toxic substance. What is called MRT is a mean duration of stay, worked out from the concentration-time curve. As usually defined, the Cmax is the maximum level reached in the sampled fluid or tissue. The term Tmax denotes the time at which the peak concentration occurs. With `C=Cc1ccc(CN2C[C@@H]3CCCN4CCC[C@@H]([C@H]34)[C@H]2CCCC(=O)O)cc1` [Compound 7m, 12-N-4-Vinylbenzyl matrinic acid], in data set [1], the “SI (selectivity index, CC50/EC50)” value worked out at 39.2 and the pEC50 was 5.33. The CC50 in the data set on Huh7.5 cells amounted to 184 µM. For the same compound, the “HCV NS3/4A protease activity after treatment” value on HCV NS3/4A protease is “not altered”. In data set [2], the “effect on body weight” value was “no effect”, the mortality entry is listed as “No mouse died” and the LD50 entry is recorded as “over 1000 mg/kg”. The “therapeutic efficacy before, at and after infection” value in the data set on HCV was “effective before, at and after HCV infection”. Moreover, in data set [3] (oral 25 mg/kg), the “Cmax relative to that of 7c” value was 1.8 fold. The “AUC relative to that of 7c” value in data set [3] (oral 25 mg/kg, 0 to 24 h) is on record as “approximately 2 fold”. Further, in data set [3], the MRT came to 1.65 h, the t1/2 is 2.01 h, the Cmax turned out to be 23.2 µM and the Tmax stood at 0.5 h. Also, the “AUC 0−t” value in data set [3] (0 to 24 h) came to 25.9 µM·h.
For the compound `Cc1ccc(CN2CC3CCCN4CCCC(C2CCCC(=O)O)C34)cc1` (stereo not shown) [Compound 7c, 12-N-4-Methylbenzyl matrinic acid], in data set [1], the “improvement in anti-HCV activity as compared to 1” value stood at 2 fold and the pEC50 was 4.29. Besides, the CC50 with Huh7.5 cells is over 2700 µM. Moreover, the “HCV NS3 level” value in the data set with HCV NS3 (Huh7.5 cells, 62.5 µg/mL) is “significantly reduced”. In addition, the “intracellular HCV-NS3 protein” value with HCV NS3 (Huh7.5 cells, 31.25, 62.5, 125 and 250 µg/mL, 72 h) is “decreased dose-dependently”. Further, the Hsc70 protein expression result in the data set on Hsc70 is recorded as “afforded activity in down-regulating Hsc70 protein expression; also recorded: decreased dose-dependently”. For the same compound, the “HCV NS3/4A protease activity after treatment” value on HCV NS3/4A protease is listed as “not altered”. Besides, in data set [2], the “effect on body weight” value is recorded as “no effect”, the mortality result is “No mouse died” and the LD50 is recorded as over 1000 mg/kg. Further, the “therapeutic efficacy before, at and after infection” value with HCV is listed as “anti-HCV pattern close to that of 7m”. In data set [3], the mean residence time MRT was 1.68 h, the t1/2 stood at 1.5 h, the peak concentration (Cmax) was found to be 13.2 µM and the time of peak concentration (Tmax) was 0.25 h. For the same compound, the “AUC 0−t” value in data set [3] (0 to 24 h) came out at 13.4 µM·h.
